# Tested on: SK-MEL2 human tumor cells that were transfected with a plasmid containing the murine VEGF gene
# Assay: Matrigel Angiogenesis Model (hemoglobin content of Matrigel plugs)
# Format: in vivo, Mice
# Conditions: 30, 100 and 300 mg/kg po sid; 12 days post-implantation; vs. vehicle control animals
# Description: Preparation of Matrigel Plugs and in vivo Phase: Matrigel® (Collaborative Biomedical Products, Bedford, MA) is a basement membrane extract from a murine tumor composed primarily of laminin, collagen IV and heparan sulfate proteoglycan. It is provided as a sterile liquid at 4° C, but rapidly forms a solid gel at 37° C.
# Liquid Matrigel at 4° C was mixed with SK-MEL2 human tumor cells that were transfected with a plasmid containing the murine VEGF gene with a selectable marker. Tumor cells were grown in vitro under selection and cells were mixed with cold liquid Matrigel at a ratio of 2 X 10^6 per 0.5 ml. […]
# Optical densities were determined spectrophotometrically at 600 nm in a 96-well plate reader, SpectraMax 250 Microplate Spectrophotometer System (Molecular Devices, Sunnyvale, CA). Background Lysis Buffer readings were subtracted from all wells.
# Total sample hemoglobin content was calculated according to the following equation: Total Hemoglobin = (Sample Lysate Volume) x (Hemoglobin Concentration) [formula]
# The average Total Hemoglobin of Matrigel samples without cells was subtracted from each Total Hemoglobin Matrigel sample with cells. Percent inhibition was calculated according to the following equation: % Inhibition =((Average Total Hemoglobin Drug-Treated Tumor Lysates) X 100)/((Average Total Hemoglobin Non-Treated Tumor Lysates)) [formula]
smiles,measurement,value
"CNC(=O)c1cc(Cc2nnc(Nc3ccc(Cl)cc3)c3ccccc23)ccn1 [Example 1, 4-[4-(4-Chlorophenylamino)phthalazin-1-ylmethyl]pyridin-2-yl carboxylic acid methylamide]",inhibition of total hemoglobin content of the Matrigel samples,> 50%

# From patent EP1208096B1, “SUBSTITUTED PYRIDAZINES AND FUSED PYRIDAZINES WITH ANGIOGENESIS INHIBITING ACTIVITY” (Bayer Corporation, priority 1999, dated 2001)
